Measurements taken from patent US9119398B2, “Plant growth regulating compounds” (Syngenta Participations AG, priority 2012, dated 2015).
Several values for one entry are separate records, joined by “and”; a condition that tells them apart may be missing. Equal values may be shown once.

Columns and labels:
[1] = system: Brassica oleracea cv Botrytis (temperate cauliflower) seeds; assay: Paper germination test, temperate cauliflower seeds, 10° C. in the light; assay type: in vivo; conditions: 25 μM, sets A and B separate experiments
Procedure: The effect of compounds of Formula (I) on the germination of Brassica oleracea cv Botrytis or common cauliflower was tested on two types of cauliflowers: temperate types and tropical types. These two types were chosen because they display different sensitivities to the light conditions and temperature during germination. Germination of a sensitive temperate type is inhibited by light at 10° C. while for the tropical types germination at 20° is stimulated by the presence of light.
The temperate seed batches tested are part of commercially produced seed batches of various varieties which are known to be sensitive to light at 10° C. These seeds were harvested and cleaned according standard commercial procedures. Ready seed batches were used (Ready indicates the processing level of these seeds: they have been cleaned and sized but received no other treatments). The tropical seed batches tested are part of seed batches produced as basic seed (for maintenance of the parental line) and were processed accordingly.
Germination was assessed using the standard paper germination test for Brassica: Fifty seeds were placed on blue germination paper, which was moistened with the appropriate solutions, in closed oblong germination boxes. Each condition was tested in duplo. Germination boxes were placed in controlled germination cabinets with the appropriate temperature and light conditions. Germination of seeds was counted at regular intervals. Seeds were considered to be germinated when the radical had protruded the testa and endosperm (radical size approximately 1 mm)
Test compounds were dissolved in DMSO at a concentration of 50 mM and stored at −20° C. The strigolactone analogue GR24 (commercially available as a racemic mixture of 2 diastereoisomers, referred to as “synthetic strigolactone GR-24” and first prepared by Johnson A. W. & all, Journal of the Chemical Society, Perkin Transactions 1, 1981, page 1734-1743) was included as positive control. Germination solutions were prepared by diluting the stock solutions with demineralized water till 25 μM. As control solutions demineralized water and a 0.05% v/v DMSO solution were used.

[2] = system: Orobanche cumana Wallr. seeds; assay: Germination of preconditioned Orobanche cumana seeds on glass fiber filter paper in petri dishes; assay type: in vivo; conditions: mean, N = 5 × 100 seeds, seed lot IN153
Procedure: The effect of compounds of Formula (I) on germination of Orobanche cumana Wallr. seeds was evaluated on glass fiber filter paper (GFFP) in petri dishes. Seeds were preconditioned at moisture and suitable temperature to become responsive to the specific chemical germination stimulants.
Test compounds were dissolved in DMSO (10 000 mg l^−1) and stored at room temperature in a desiccators with desiccants. The stock solutions were dissolved with deionised water to the appropriate final test concentration.
Seeds of O. cumana race ‘F’ (IN153) were collected from a sunflower field in Manzanilla (Seville, Spain) in 2006 and stored at room temperature. To separate seeds from heavy organic debris, a modified sucrose floatation technique as described by Hartman & Tanimonure (Plant Disease (1991), 75, p. 494) was applied. Seeds were filled into a separation funnel and stirred in water. When seeds floated to the surface, the water fraction containing heavy debris was discarded. Seeds were re-suspended in 2.5M sucrose solution (specific gravity of 1.20) and heavy debris was allowed to settle down for 60 min After removing debris, seeds were disinfected in 1% sodium hypochlorite solution and 0.025% (v/v) Tween 20 for 2 min. The seeds were decanted onto two layers of cheesecloth, rinsed with sterile deionised water and re-suspended in sterile deionised water. Two ml of the seed suspension containing approximately 150-400 seeds were spread evenly on two layers of sterile glass fiber filter paper disc ([…]) in Petri dishes (Ø9 cm). After wetting the discs with 3 ml sterile deionised water, petri dishes were sealed with parafilm. Seeds were incubated for 10 days at 20° C. in the dark for seed conditioning. The upper disc with conditioned seeds was briefly dried, transferred to a petri dish lined with a dry GFFP disc, and wetted with 6 ml of the appropriate test solution. The compounds of Formula (I) were tested at concentrations of 0.001, 0.01, 0.1, or 1 mg l^−. The strigolactone analogue GR24 was included as positive control and 0.01% DMSO as negative control. All treatments were tested in five replicates. Seeds were re-incubated at 20° C. in the dark and examined for germination 10 days later. The radicles of germinated seeds were stained for 5 min with blue ink (MIGROS, Switzerland) in 5% acetic acid according to Long et al. (Seed Science Research (2008), 18, p. 125). After staining, seeds were photographed using a camera stand mounted with a digital SLR camera (Canon EOS 5D). Germination of 100 seeds per replicate was evaluated on digital images. Seeds were considered germinated when the radicle protruded from the seed coat.

[3] = temperate cauliflower Spacestar seed batch 11B313 (cold-sensitive)
[4] = temperate cauliflower Spacestar seed batch 11B314 (not cold sensitive)
[5] = Table B1, concentration 0.001 mg 1^−1, DMSO control 0.4% germination
[6] = Table B1, concentration 0.1 mg 1^−1, DMSO control 0.4% germination
[7] = Table B1, concentration 1 mg 1^−1, DMSO control 0.4% germination

## CC1=CC(O/C=C2\CCCCN(c3ccccc3)C2=O)OC1=O (centres unmarked) [Ic-13, (3E)-3-[(4-methyl-5-oxo-2H-furan-2-yl)oxymethylene]-1-phenyl-azepan-2-one]
other
  melting point: 150 to 160 °C

## CC1=CC(O/C=C2/C(=O)NC3C=CCC23)OC1=O (centres unmarked) [Ia-1, (3E)-3-[(4-methyl-5-oxo-2H-furan-2-yl)oxymethylene]-1,3a,4,6a-tetrahydrocyclopenta[b]pyrrol-2-one]
[1]; [3]
  Gmax (%), total germination as percentage of sown seeds: 72.0%
  stimulation (%), extra germination compared to the DMSO treatment, as percentage of the germination in the DMSO treatment: 20.0%
[1]; [4]
  Gmax (%), total germination as percentage of sown seeds: 96.5%
  stimulation (%), extra germination compared to the DMSO treatment, as percentage of the germination in the DMSO treatment: 6.6%
[2]; [5]
  Germination (%): 1.4%
[2]; [6]
  Germination (%): 24.6%
[2]; [7]
  Germination (%): 23.2%

## CC1=C[C@H](O/C=C2/C(=O)O[C@@H]3c4ccccc4C[C@H]23)OC1=O (mixture of isomers) [GR-24, reference compound]
[1]; [3]
  Gmax (%), total germination as percentage of sown seeds: 71.5% and 80.0%
[1]; [4]
  Gmax (%), total germination as percentage of sown seeds: 93.5% and 93.0%
  stimulation (%), extra germination compared to the DMSO treatment, as percentage of the germination in the DMSO treatment: 3.3% and 8.1%
[2]; Concentration 0.01 mg l^-1, 10 days at 20° C. in the dark
  Germination (%): 88%
[2]; Concentration 0.01 mg l^-1 as printed, 10 days at 20° C. in the dark
  Germination (%): 86.6%
[2]; Concentration 1 mg l^-1, 10 days at 20° C. in the dark
  Germination (%): 95.2%
[2]; [5]
  Germination (%): 24.8%
[2]; [6]
  Germination (%): 47.2%
[2]; [7]
  Germination (%): 80.2%
[2]; Table B2, concentration 0.01 mg 1^−1, DMSO control 2.4% germination
  Germination (%): 12.2%
[2]; Table B2, concentration 0.1 mg 1^−1, DMSO control 2.4% germination
  Germination (%): 46.4%
[2]; Table B2, concentration 1 mg 1^−1, DMSO control 2.4% germination
  Germination (%): 85.2%
[2]; Table B3, concentration 0.001 mg 1^−1, DMSO control 0% germination
  Germination (%): 26%
[2]; Table B3, concentration 0.01 mg 1^−1, DMSO control 0% germination
  Germination (%): 51%
[2]; Table B3, concentration 0.1 mg 1^−1, DMSO control 0% germination
  Germination (%): 84.2%
[2]; Table B5, concentration 0.01 mg 1^−1 (second column), DMSO control 1.4% germination
  Germination (%): 78.4%
[2]; Table B5, concentration 0.01 mg 1^−1 (third column), DMSO control 1.4% germination
  Germination (%): 65%
[2]; Table B5, concentration 1 mg 1^−1, DMSO control 1.4% germination
  Germination (%): 86.6%
[2]; Table B6, concentration 0.001 mg 1^−1, DMSO control 2.4% germination
  Germination (%): 23.0%
[2]; Table B6, concentration 0.1 mg 1^−1, DMSO control 2.4% germination
  Germination (%): 43.2%
[2]; Table B6, concentration 1 mg 1^−1, DMSO control 2.4% germination
  Germination (%): 58.1%
